Experiment: Liquid-crystalline properties of single compounds, determined at 10% in nematic host mixture ZLI-4792
Format: physicochemical
Details: 10% in host mixture ZLI-4792
Method: Außerdem werden folgende Abkürzungen und Symbole verwendet: Vo Schwellenspannung, kapazitiv [V] bei 20°C, V10 optische Schwelle für 10 % relativen Kontrast [V] bei 20°C, ne außerordentlicher Brechungsindex bei 20°C und 589 nm, no ordentlicher Brechungsindex bei 20°C und 589 nm, Δn optische Anisotropie bei 20°C und 589 nm, ε⊥ dielektrische Suszeptibilität senkrecht zum Direktor bei 20°C und 1 kHz, ε∥ dielektrische Suszeptibilität parallel zum Direktor bei 20°C und 1 kHz, Δε dielektrische Anisotropie bei 20°C und 1 kHz, Kp., T(N,I) Klärpunkt [°C], γ1 Rotationsviskosität bei 20°C [mPa·s], K1 elastische Konstante, "splay"-Deformation bei 20°C [pN], K2 elastische Konstante, "twist"-Deformation bei 20°C [pN], K3 elastische Konstante, "bend"-Deformation bei 20°C [pN], LTS "low temperature stability" (Phase), bestimmt in Testzellen, ton Einschaltzeit [Transmissionsänderung von 10 % auf 90 %) bei 20 °C und definierter Operationsspannung, toff Ausschaltzeit [Transmissionsänderung von 90 % auf 10 %) bei 20 °C, RT Reaktionszeit (ton + toff) HR20 "voltage holding ratio" bei 20°C [%] und HR100 "voltage holding ratio" bei 100°C [%].
Alle physikalischen Eigenschaften werden und wurden nach "Merck Liquid Crystals, Physical Properties of Liquid Crystals", Status Nov. 1997, Merck KGaA, Darmstadt, Deutschland bestimmt und gelten für eine Temperatur von 20°C und An wird bei 589 nm und Δε bei 1 kHz bestimmt, sofern nicht jeweils explizit anders angegeben.
Die flüssigkristallinen Eigenschaften der Einzelverbindungen werden, soweit nicht anders angegeben, in der nematischen Wirtsmischung ZLI-4792 (kommerziell erhältlich von Merck KGaA, Darmstadt) bei einer Konzentration von 10% bestimmt.

## CCCc1ccc(-c2cc(F)c(-c3ccc(C)s3)c(F)c2)cc1 [PUS-3-1, 2-(3,5-Difluor-4'-propyl-biphenyl-4-yl)-5-methyl-thiophen]
Dielectric anisotropy at 20°C and 1 kHz
  Δε: +3,1
Optical anisotropy at 20°C and 589 nm
  Δn: 0,3055
Rotational viscosity at 20°C
  γ1: 102 mPa·s

Reference: patent EP2593528B1, “LIQUID-C[…] WITH STABILIZER” (Merck Patent GmbH, priority 2010, dated 2012)
